Assays:
Human melanocortin (MC5) = biological target: T1, Human melanocortin (MC5) (Homo sapiens, UniProt P33032); experiment: Radioligand binding, human melanocortin MC5 membranes, FlashPlate, [125I]-NDP-αMSH; details: compound at 10 μM; human melanocortin MC5 membranes
T1 construct: purchased Perkin Elmer Biosignal
Method in brief: (§1)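 Cloned human receptor membranes were coated onto FlashPlate wells and incubated with radioligand and compound (added from a 0.5 mM DMSO daughter plate) for 1 hour at room temperature in the dark. Scintillation counting gave percent inhibition, with DMSO defining total and reference ligand defining non-specific binding.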

Human δ-opioid (DOP) = biological target: T2, Human δ-opioid (DOP) (Homo sapiens, UniProt P41143); experiment: Radioligand binding, human δ-opioid (DOP) membranes, FlashPlate, [3H]-Bremazocine; details: compound at 10 μM; human δ-opioid (DOP) membranes
T2 construct: purchased Perkin Elmer Biosignal
T2 sequence (P41143 whole entry): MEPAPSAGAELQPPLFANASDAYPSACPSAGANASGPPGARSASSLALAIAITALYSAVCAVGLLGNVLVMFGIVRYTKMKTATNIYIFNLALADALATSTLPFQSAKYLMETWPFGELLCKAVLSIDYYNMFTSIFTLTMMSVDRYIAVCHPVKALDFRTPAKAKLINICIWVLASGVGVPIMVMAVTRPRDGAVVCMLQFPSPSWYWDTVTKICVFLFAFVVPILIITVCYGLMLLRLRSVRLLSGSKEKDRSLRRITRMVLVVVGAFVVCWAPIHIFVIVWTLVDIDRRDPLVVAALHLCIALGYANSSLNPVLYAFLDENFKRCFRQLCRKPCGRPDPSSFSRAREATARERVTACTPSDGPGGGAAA
Method in brief: as §1

Human Melanocortin (MC3) = biological target: T3, Human Melanocortin (MC3) (Homo sapiens, UniProt P41968); experiment: Radioligand binding, human melanocortin MC3 membranes, FlashPlate, [125I]-NDP-αMSH; details: compound at 10 μM; human melanocortin MC3 membranes
T3 construct: purchased Perkin Elmer Biosignal
T3 sequence (P41968 whole entry): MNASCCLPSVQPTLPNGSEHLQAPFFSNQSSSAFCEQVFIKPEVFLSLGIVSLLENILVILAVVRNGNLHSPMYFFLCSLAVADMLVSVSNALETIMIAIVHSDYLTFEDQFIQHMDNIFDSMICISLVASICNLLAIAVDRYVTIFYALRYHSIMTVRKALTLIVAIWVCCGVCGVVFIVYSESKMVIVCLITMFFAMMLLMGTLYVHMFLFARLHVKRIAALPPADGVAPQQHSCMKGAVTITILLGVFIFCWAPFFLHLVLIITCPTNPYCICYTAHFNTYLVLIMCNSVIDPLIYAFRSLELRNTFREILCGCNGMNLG
Method in brief: as §1

Human κ-Opioid (KOP) = biological target: T4, Human κ-Opioid (KOP) (Homo sapiens, UniProt P41145); experiment: Radioligand binding, human κ-opioid (KOP) membranes, filtration, [3H]-Diprenorphine; details: compound at 10 μM; human κ-opioid (KOP) membranes
T4 construct: purchased Perkin Elmer Biosignal
T4 sequence (P41145 whole entry): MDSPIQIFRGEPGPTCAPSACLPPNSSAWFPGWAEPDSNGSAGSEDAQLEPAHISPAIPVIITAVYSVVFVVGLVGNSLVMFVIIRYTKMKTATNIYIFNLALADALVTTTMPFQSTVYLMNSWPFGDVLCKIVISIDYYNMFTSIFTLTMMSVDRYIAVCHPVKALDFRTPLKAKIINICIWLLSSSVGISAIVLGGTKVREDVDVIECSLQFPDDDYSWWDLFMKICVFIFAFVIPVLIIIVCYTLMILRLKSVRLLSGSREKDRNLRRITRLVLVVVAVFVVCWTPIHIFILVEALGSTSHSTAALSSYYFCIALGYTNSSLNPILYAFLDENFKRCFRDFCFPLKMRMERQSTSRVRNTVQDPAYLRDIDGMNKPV
Method in brief: (§2)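 Filtration binding on cloned human receptor membranes (1 Unit/well), [125I]-Substance P for NK1 and [3H]-Diprenorphine for KOP, 1 h at room temperature. Filters PEI-presoaked, washed with cold 50 mM Tris-HCl pH 7.4, counted by scintillation; percent inhibition calculated, reference ligand defining non-specific binding.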

Human opioid (ORL1) = biological target: T5, Human opioid (ORL1) (Homo sapiens, UniProt P41146); experiment: Radioligand binding, human opioid ORL1 membranes, FlashPlate, [125I]-Nociceptin; details: compound at 10 μM; human ORL1 membranes
T5 construct: purchased Perkin Elmer Biosignal
T5 sequence (P41146 whole entry): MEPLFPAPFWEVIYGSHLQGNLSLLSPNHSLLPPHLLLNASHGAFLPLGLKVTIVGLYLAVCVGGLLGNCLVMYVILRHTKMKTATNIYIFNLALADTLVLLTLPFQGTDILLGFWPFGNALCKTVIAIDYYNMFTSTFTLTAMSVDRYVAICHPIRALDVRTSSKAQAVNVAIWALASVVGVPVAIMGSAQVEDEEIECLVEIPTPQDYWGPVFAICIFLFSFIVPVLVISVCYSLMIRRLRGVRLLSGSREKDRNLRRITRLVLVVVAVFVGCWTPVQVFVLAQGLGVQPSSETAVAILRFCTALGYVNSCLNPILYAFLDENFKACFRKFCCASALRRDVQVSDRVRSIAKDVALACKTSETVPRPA
Method in brief: as §1

[1] = biological target: T6, Human neuropeptide Y (NPY-Y1) (Homo sapiens, UniProt P25929); experiment: Radioligand binding, human neuropeptide Y NPY-Y1 membranes, FlashPlate, [125I]-PYY; details: compound at 10 μM; human NPY-Y1 membranes
T6 construct: purchased Perkin Elmer Biosignal
T6 sequence (P25929 1-384): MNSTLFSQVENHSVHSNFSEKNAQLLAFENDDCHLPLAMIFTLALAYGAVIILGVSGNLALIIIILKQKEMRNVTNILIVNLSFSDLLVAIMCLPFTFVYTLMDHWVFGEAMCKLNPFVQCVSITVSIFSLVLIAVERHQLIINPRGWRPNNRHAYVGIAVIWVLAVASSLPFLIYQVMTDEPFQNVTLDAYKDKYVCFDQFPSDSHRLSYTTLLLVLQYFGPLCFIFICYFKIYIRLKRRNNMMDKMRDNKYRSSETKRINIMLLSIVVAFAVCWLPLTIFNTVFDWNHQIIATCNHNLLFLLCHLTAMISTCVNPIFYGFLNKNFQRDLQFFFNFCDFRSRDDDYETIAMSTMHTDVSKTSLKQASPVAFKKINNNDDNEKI
Method in brief: as §1

Human neurokinin (NK1) = biological target: T7, Human neurokinin (NK1) (Homo sapiens, UniProt P25103); experiment: Radioligand binding, human neurokinin NK1 membranes, filtration, [125I]-Substance P; details: compound at 10 μM; human neurokinin NK1 membranes
T7 construct: purchased Perkin Elmer Biosignal
T7 sequence (P25103 whole entry): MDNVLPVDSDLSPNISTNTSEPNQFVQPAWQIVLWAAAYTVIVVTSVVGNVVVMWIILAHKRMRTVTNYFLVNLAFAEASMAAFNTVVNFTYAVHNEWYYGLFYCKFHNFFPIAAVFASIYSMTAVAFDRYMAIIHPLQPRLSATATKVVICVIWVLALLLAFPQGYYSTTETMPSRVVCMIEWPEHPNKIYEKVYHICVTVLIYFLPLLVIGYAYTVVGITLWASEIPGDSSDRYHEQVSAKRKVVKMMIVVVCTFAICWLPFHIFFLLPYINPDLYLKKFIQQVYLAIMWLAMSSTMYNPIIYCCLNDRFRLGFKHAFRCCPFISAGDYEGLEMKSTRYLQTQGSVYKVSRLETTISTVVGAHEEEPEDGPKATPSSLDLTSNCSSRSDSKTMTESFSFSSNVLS
Method in brief: as §2

[2] = biological target: T8, Human melanin-concentrating hormone (MCH1) (Homo sapiens, UniProt Q99705); experiment: Radioligand binding, human melanin-concentrating hormone MCH1 membranes, FlashPlate, [125I]-S36057; details: compound at 10 μM; human MCH1 membranes
T8 construct: purchased Perkin Elmer Biosignal
T8 sequence (Q99705 whole entry): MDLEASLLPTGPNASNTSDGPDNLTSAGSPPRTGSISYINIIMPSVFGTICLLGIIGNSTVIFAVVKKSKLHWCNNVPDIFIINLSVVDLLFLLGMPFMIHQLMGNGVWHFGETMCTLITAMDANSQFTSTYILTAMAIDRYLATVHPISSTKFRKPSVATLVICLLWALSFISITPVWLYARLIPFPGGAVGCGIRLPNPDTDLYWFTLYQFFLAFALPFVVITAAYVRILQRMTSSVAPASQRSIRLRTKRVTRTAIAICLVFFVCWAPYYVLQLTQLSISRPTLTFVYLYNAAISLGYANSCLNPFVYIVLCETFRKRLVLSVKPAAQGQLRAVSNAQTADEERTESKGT
Method in brief: as §1

Human Melanocortin (MC4) = biological target: T9, Human Melanocortin (MC4) (Homo sapiens, UniProt P32245); experiment: Radioligand binding, human melanocortin MC4 membranes, FlashPlate, [125I]-NDP-αMSH; details: compound at 10 μM; human melanocortin MC4 membranes
T9 construct: purchased Perkin Elmer Biosignal
T9 sequence (P32245 whole entry): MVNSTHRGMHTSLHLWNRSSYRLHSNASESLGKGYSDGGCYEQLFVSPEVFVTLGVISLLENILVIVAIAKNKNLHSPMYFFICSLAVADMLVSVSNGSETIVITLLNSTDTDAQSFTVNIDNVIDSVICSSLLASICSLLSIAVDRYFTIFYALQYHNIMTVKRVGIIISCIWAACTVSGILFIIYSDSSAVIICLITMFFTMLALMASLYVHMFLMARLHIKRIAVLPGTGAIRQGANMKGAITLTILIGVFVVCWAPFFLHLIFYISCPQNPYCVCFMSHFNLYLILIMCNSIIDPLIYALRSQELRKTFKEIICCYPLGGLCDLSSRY
Method in brief: as §1

Human μ-opioid (MOP) = biological target: T10, Human μ-opioid (MOP) (Homo sapiens, UniProt P35372); experiment: Radioligand binding, human μ-opioid (MOP) membranes, FlashPlate, [3H]-Naloxone; details: compound at 10 μM; human μ-opioid (MOP) membranes
T10 construct: purchased Perkin Elmer Biosignal
T10 sequence (P35372 whole entry): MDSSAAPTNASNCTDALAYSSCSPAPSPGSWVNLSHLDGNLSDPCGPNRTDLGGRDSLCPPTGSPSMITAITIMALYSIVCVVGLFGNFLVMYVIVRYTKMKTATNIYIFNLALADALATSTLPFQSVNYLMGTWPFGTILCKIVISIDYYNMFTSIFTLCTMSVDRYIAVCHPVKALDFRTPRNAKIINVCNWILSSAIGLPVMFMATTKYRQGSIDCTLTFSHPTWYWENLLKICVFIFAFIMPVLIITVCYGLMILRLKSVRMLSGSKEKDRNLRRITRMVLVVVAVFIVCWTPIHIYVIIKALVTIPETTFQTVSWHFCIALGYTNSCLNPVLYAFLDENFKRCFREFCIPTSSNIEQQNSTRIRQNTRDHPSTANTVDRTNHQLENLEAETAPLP
Method in brief: as §1

Mouse urotensin (mUR2) = biological target: T11, Mouse urotensin (mUR2) (Mus musculus, UniProt Q8VIH9); experiment: Radioligand binding, mouse urotensin mUR2 membranes, FlashPlate, [125I]-Urotensin II; details: compound at 10 μM; mouse urotensin mUR2 membranes
T11 construct: purchased Perkin Elmer Biosignal
T11 sequence (Q8VIH9 1-385): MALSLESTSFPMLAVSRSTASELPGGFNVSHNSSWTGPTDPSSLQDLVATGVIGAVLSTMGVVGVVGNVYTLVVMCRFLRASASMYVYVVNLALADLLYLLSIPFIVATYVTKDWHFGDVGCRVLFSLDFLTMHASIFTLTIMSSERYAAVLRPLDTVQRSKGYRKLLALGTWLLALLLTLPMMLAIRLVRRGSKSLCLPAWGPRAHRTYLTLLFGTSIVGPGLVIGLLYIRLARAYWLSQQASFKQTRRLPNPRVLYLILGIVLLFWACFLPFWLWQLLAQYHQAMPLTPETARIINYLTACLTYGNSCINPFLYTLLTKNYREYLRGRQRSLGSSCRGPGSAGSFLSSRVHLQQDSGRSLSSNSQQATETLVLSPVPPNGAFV
Method in brief: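 Cloned mouse urotensin (mUR2) receptor membranes from Perkin Elmer Biosignal were immobilized in FlashPlate microplates using a proprietary coating. Each well got 19.5 μl buffer, then 0.5 μl of DMSO, reference ligand, or compound. Adding 5 μl of [125I]-Urotensin II, diluted to 5× final concentration in binding buffer, started binding. Plates were sealed with TopSeal-A and incubated 1 hour at room temperature in the dark. Wells were counted for 30 seconds each on a TopCount after a 60-second delay, and percentage inhibition was calculated.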

T1 sequence (P33032 whole entry): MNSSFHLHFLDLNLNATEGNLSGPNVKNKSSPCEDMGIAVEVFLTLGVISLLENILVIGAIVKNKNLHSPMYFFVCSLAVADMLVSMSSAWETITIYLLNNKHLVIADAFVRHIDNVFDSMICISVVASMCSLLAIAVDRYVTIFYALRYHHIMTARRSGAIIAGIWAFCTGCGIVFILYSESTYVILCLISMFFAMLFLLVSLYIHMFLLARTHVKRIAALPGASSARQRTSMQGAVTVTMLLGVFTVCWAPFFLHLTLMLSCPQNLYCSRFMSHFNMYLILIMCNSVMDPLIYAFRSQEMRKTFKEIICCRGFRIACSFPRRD

| Structure (SMILES) | A5 radioligand binding inhibition (Human melanocortin (MC5)) | A1 radioligand binding inhibition (Human δ-opioid (DOP)) | A3 radioligand binding inhibition (Human Melanocortin (MC3)) | A2 radioligand binding inhibition (Human κ-Opioid (KOP)) | A10 radioligand binding inhibition (Human opioid (ORL1)) | A9 radioligand binding inhibition [1] | A8 radioligand binding inhibition (Human neurokinin (NK1)) | A6 radioligand binding inhibition [2] | A4 radioligand binding inhibition (Human Melanocortin (MC4)) | A7 radioligand binding inhibition (Human μ-opioid (MOP)) | A11 radioligand binding inhibition (Mouse urotensin (mUR2)) |
| --- | --- | --- | --- | --- | --- | --- | --- | --- | --- | --- | --- |
| COC[C@H]1OC(OCc2ccc(Cl)cc2)[C@H](NC(=O)CNC(=N)N)[C@@H](OCc2ccc(-c3ccccc3)cc2)[C@@H]1O (stereo partly drawn) [compound 28] | + (“+” indicates greater than 50% inhibition at 10 μM) | − (“−” indicates less than 50% inhibition at 10 μM) | − (“−” indicates less than 50% inhibition at 10 μM) | − (“−” indicates less than 50% inhibition at 10 μM) | − (“−” indicates less than 50% inhibition at 10 μM) | − (“−” indicates less than 50% inhibition at 10 μM) | + (“+” indicates greater than 50% inhibition at 10 μM) | + (“+” indicates greater than 50% inhibition at 10 μM) | + (“+” indicates greater than 50% inhibition at 10 μM) | − (“−” indicates less than 50% inhibition at 10 μM) | − (“−” indicates less than 50% inhibition at 10 μM) |
| COC[C@H]1OC(OCc2ccc(Cl)cc2)[C@H](NC(=O)CCNC(=N)N)[C@@H](OCc2ccc(-c3ccccc3)cc2)[C@@H]1O (stereo partly drawn) [compound 29] | + (“+” indicates greater than 50% inhibition at 10 μM) | − (“−” indicates less than 50% inhibition at 10 μM) | + (“+” indicates greater than 50% inhibition at 10 μM) | − (“−” indicates less than 50% inhibition at 10 μM) | − (“−” indicates less than 50% inhibition at 10 μM) | − (“−” indicates less than 50% inhibition at 10 μM) | + (“+” indicates greater than 50% inhibition at 10 μM) | + (“+” indicates greater than 50% inhibition at 10 μM) | + (“+” indicates greater than 50% inhibition at 10 μM) | − (“−” indicates less than 50% inhibition at 10 μM) | − (“−” indicates less than 50% inhibition at 10 μM) |
| COC[C@H]1OC(OCc2ccc(Cl)cc2)[C@H](NC(=O)CCCNC(=N)N)[C@@H](OCc2ccc(-c3ccccc3)cc2)[C@@H]1O (stereo partly drawn) [compound 30] | + (“+” indicates greater than 50% inhibition at 10 μM) | − (“−” indicates less than 50% inhibition at 10 μM) | + (“+” indicates greater than 50% inhibition at 10 μM) | − (“−” indicates less than 50% inhibition at 10 μM) | − (“−” indicates less than 50% inhibition at 10 μM) | − (“−” indicates less than 50% inhibition at 10 μM) | + (“+” indicates greater than 50% inhibition at 10 μM) | + (“+” indicates greater than 50% inhibition at 10 μM) | + (“+” indicates greater than 50% inhibition at 10 μM) | + (“+” indicates greater than 50% inhibition at 10 μM) | − (“−” indicates less than 50% inhibition at 10 μM) |
| COC[C@H]1OC(OCc2ccc(Cl)cc2)[C@H](NC(=O)CNC(=N)N)[C@@H](OCc2ccc3ccccc3c2)[C@@H]1O (stereo partly drawn) [compound 31] | + (“+” indicates greater than 50% inhibition at 10 μM) | − (“−” indicates less than 50% inhibition at 10 μM) | + (“+” indicates greater than 50% inhibition at 10 μM) | − (“−” indicates less than 50% inhibition at 10 μM) | − (“−” indicates less than 50% inhibition at 10 μM) | − (“−” indicates less than 50% inhibition at 10 μM) | − (“−” indicates less than 50% inhibition at 10 μM) | − (“−” indicates less than 50% inhibition at 10 μM) | − (“−” indicates less than 50% inhibition at 10 μM) | + (“+” indicates greater than 50% inhibition at 10 μM) | − (“−” indicates less than 50% inhibition at 10 μM) |
| COC[C@H]1OC(OCc2ccc(Cl)cc2)[C@H](NC(=O)CCNC(=N)N)[C@@H](OCc2ccc3ccccc3c2)[C@@H]1O (stereo partly drawn) [compound 32] | + (“+” indicates greater than 50% inhibition at 10 μM) | + (“+” indicates greater than 50% inhibition at 10 μM) | − (“−” indicates less than 50% inhibition at 10 μM) | − (“−” indicates less than 50% inhibition at 10 μM) | − (“−” indicates less than 50% inhibition at 10 μM) | − (“−” indicates less than 50% inhibition at 10 μM) | + (“+” indicates greater than 50% inhibition at 10 μM) | − (“−” indicates less than 50% inhibition at 10 μM) | − (“−” indicates less than 50% inhibition at 10 μM) | − (“−” indicates less than 50% inhibition at 10 μM) | − (“−” indicates less than 50% inhibition at 10 μM) |
| COC[C@H]1OC(OCc2ccc(Cl)cc2)[C@H](NC(=O)CCCNC(=N)N)[C@@H](OCc2ccc3ccccc3c2)[C@@H]1O (stereo partly drawn) [compound 33] | − (“−” indicates less than 50% inhibition at 10 μM) | − (“−” indicates less than 50% inhibition at 10 μM) | − (“−” indicates less than 50% inhibition at 10 μM) | − (“−” indicates less than 50% inhibition at 10 μM) | − (“−” indicates less than 50% inhibition at 10 μM) | − (“−” indicates less than 50% inhibition at 10 μM) | + (“+” indicates greater than 50% inhibition at 10 μM) | + (“+” indicates greater than 50% inhibition at 10 μM) | − (“−” indicates less than 50% inhibition at 10 μM) | − (“−” indicates less than 50% inhibition at 10 μM) | − (“−” indicates less than 50% inhibition at 10 μM) |

From patent publication US20080009418A1, “Selective Inhibitors” (Alchemia LTD., priority 2004, published 2008)
